According to patent US20130212744A1, “METHOD OF REDUCING INSECT-VECTORED VIRAL INFECTIONS” (priority 2010, published 2013):
Like-named read-outs stand apart in the source and are kept apart here.

Legend:
Assay type in all cases: in vivo
[1] = system: whitefly Bemisia tabaci adults; assay: Soil use (drench) field trial on tomato, efficacy on whitefly adults; settings: for Emax at 100 g/ha: 100 g ai/ha; for Emax at 150 g/ha: 150 g ai/ha
Description: Two soil applied studies were carried out in Elhasanya, Egypt in 2009 on tomato plants with the main goal to measure efficacy on the whitefly Bemisia tabaci. The plot size was 4.8 m^2 and 6 replicates were used in the trial. Products were applied once on young tomato plants at BBCH stage 14 as a drench. The spray volume was at the first application 350 l/ha. The evaluation of this study was done counting the adult whiteflies (Bemisia tabaci) as well as the nymphs and the eggs in each plot. In addition to the direct whitefly effect, visual symptoms of the virus, mainly TYLCV (tomato yellow leaf curl virus) were evaluated also.

[2] = system: whitefly Bemisia tabaci nymphs; assay: Foliar use field trial on tomato, efficacy on whitefly nymphs; settings: Bemisia tabaci, foliar
Description: (§1) Two studies were carried out in Elhasanya, Egypt in 2009 on tomato plants of the variety Fayrouz with the main goal to measure efficacy on the whitefly Bemisia tabaci. The plot size was 4.8 m^2 and 6 replicates were used in the trial. Products were applied 3 times on young tomato plants at BBCH stages 14, 17 and 51 at spray intervals between 12 and 19 days. The spray volume was at the first application 350 l/ha and later 500 l/ha. The evaluation of this study was done counting the adult whiteflies (Bemisia tabaci) as well as the nymphs and the eggs in each plot. In addition to the direct whitefly effect, visual symptoms of the virus, mainly TYLCV (tomato yellow leaf curl virus) were evaluated also.
(§2) ASM=Acibenzolar-S-methyl. WG 50=Actigard® 50WG, a water-dispersible granule with the active ingredient ASM CYNT=Cyantraniliprole. WG 40=Cyazypyr®, a water dispersable granule with the active ingredient CYNT. Results on whitefly adults. Trial 1

[3] = system: whitefly Bemisia tabaci nymphs; assay: Soil use (drench) field trial on tomato, efficacy on whitefly nymphs; settings: for Emax at 100 g/ha: 100 g ai/ha; for Emax at 150 g/ha: 150 g ai/ha
Description: Two soil applied studies were carried out in Elhasanya, Egypt in 2009 on tomato plants with the main goal to measure efficacy on the whitefly Bemisia tabaci. The plot size was 4.8 m^2 and 6 replicates were used in the trial. […] The spray volume was at the first application 350 l/ha. The evaluation of this study was done counting the adult whiteflies (Bemisia tabaci) as well as the nymphs and the eggs in each plot. In addition to the direct whitefly effect, visual symptoms of the virus, mainly TYLCV (tomato yellow leaf curl virus) were evaluated also.

[4] = system: whitefly Bemisia tabaci adults; assay: Foliar use field trial on tomato, efficacy on whitefly adults; settings: Bemisia tabaci, foliar
Description: as §1, §2

CNC(=O)c1cc(C#N)cc(C)c1NC(=O)c1cc(Br)nn1-c1ncccc1Cl [CYNT, 3-bromo-1-(3-chloro-2-pyridyl)-4′-cyano-2′-methyl-6′-(methylcarbamoyl)pyrazole-5-carboxanilide]
Emax at 100 g/ha ([1]; 120 h, 5DAA, Trial 1): 79% | Emax at 100 g/ha ([1]; 120 h, 5DAA, Trial 2): 70% | Emax at 150 g/ha ([1]; 120 h, 5DAA, Trial 1): 83% | Emax at 150 g/ha ([1]; 120 h, 5DAA, Trial 2): 76% | Emax at 100 g/ha ([1]; 240 h, 10DAA, Trial 1): 75% | Emax at 100 g/ha ([1]; 240 h, 10DAA, Trial 2): 71% | Emax at 150 g/ha ([1]; 240 h, 10DAA, Trial 1): 75% | Emax at 150 g/ha ([1]; 240 h, 10DAA, Trial 2): 80% | Emax at 100 g/ha ([1]; 360 h, 15DAA, Trial 1): 78% | Emax at 100 g/ha ([1]; 360 h, 15DAA, Trial 2): 76% | Emax at 150 g/ha ([1]; 360 h, 15DAA, Trial 1): 79% | Emax at 150 g/ha ([1]; 360 h, 15DAA, Trial 2): 83% | Emax at 100 g/ha ([1]; 480 h, 20DAA, Trial 1): 72% | Emax at 100 g/ha ([1]; 480 h, 20DAA, Trial 2): 74% | Emax at 150 g/ha ([1]; 480 h, 20DAA, Trial 1): 74% | Emax at 150 g/ha ([1]; 480 h, 20DAA, Trial 2): 82% | Emax at 100 g/ha ([1]; 600 h, 25DAA, Trial 1): 66% | Emax at 100 g/ha ([1]; 600 h, 25DAA, Trial 2): 72% | Emax at 150 g/ha ([1]; 600 h, 25DAA, Trial 1): 69% | Emax at 150 g/ha ([1]; 600 h, 25DAA, Trial 2): 80% | Emax at 100 g/ha ([1]; 720 h, 30DAA, Trial 1): 61% | Emax at 100 g/ha ([1]; 720 h, 30DAA, Trial 2): 65% | Emax at 150 g/ha ([1]; 720 h, 30DAA, Trial 1): 67% | Emax at 150 g/ha ([1]; 720 h, 30DAA, Trial 2): 71% | Emax at 100 g/ha ([1]; 840 h, 35DAA, Trial 1): 53% | Emax at 100 g/ha ([1]; 840 h, 35DAA, Trial 2): 57% | Emax at 150 g/ha ([1]; 840 h, 35DAA, Trial 1): 59% | Emax at 150 g/ha ([1]; 840 h, 35DAA, Trial 2): 62% | Emax at 100 g/ha ([1]; 960 h, 40DAA, Trial 1): 39% | Emax at 100 g/ha ([1]; 960 h, 40DAA, Trial 2): 43% | Emax at 150 g/ha ([1]; 960 h, 40DAA, Trial 1): 45% | Emax at 150 g/ha ([1]; 960 h, 40DAA, Trial 2): 45% | Emax ([2]; 75 g ai/hl, 5DAA2, Trial 1, read-out: % Efficacy on Nymphs): 27% | Emax ([2]; 75 g ai/hl, 5DAA2, Trial 2, read-out: % Efficacy on Nymphs): 27% | Emax ([2]; 75 g ai/hl, 5DAA3, Trial 1, read-out: % Efficacy on Nymphs): 72% | Emax ([2]; 75 g ai/hl, 5DAA3, Trial 2, read-out: % Efficacy on Nymphs): 72% | Emax ([2]; 75 g ai/hl, 10DAA2, Trial 1, read-out: % Efficacy on Nymphs): 48% | Emax ([2]; 75 g ai/hl, 10DAA2, Trial 2, read-out: % Efficacy on Nymphs): 48% | Emax ([2]; 75 g ai/hl, 10DAA3, Trial 1, read-out: % Efficacy on Nymphs): 65% | Emax ([2]; 75 g ai/hl, 10DAA3, Trial 2, read-out: % Efficacy on Nymphs): 65% | Emax ([2]; 75 g ai/hl, 15DAA3, Trial 1, read-out: % Efficacy on Nymphs): 60% | Emax ([2]; 75 g ai/hl, 15DAA3, Trial 2, read-out: % Efficacy on Nymphs): 60% | Emax ([2]; 75 g ai/hl, 20DAA3, Trial 1, read-out: % Efficacy on Nymphs): 48% | Emax ([2]; 75 g ai/hl, 20DAA3, Trial 2, read-out: % Efficacy on Nymphs): 48% | Emax ([2]; 75 g ai/hl, Avg, Trial 1, read-out: % Efficacy on Nymphs Avg % C): 53% | Emax ([2]; 100 g ai/hl, 5DAA2, Trial 1, read-out: % Efficacy on Nymphs): 73% | Emax ([2]; 100 g ai/hl, 5DAA2, Trial 2, read-out: % Efficacy on Nymphs): 73% | Emax ([2]; 100 g ai/hl, 5DAA3, Trial 1, read-out: % Efficacy on Nymphs): 84% | Emax ([2]; 100 g ai/hl, 5DAA3, Trial 2, read-out: % Efficacy on Nymphs): 84% | Emax ([2]; 100 g ai/hl, 10DAA2, Trial 1, read-out: % Efficacy on Nymphs): 73% | Emax ([2]; 100 g ai/hl, 10DAA2, Trial 2, read-out: % Efficacy on Nymphs): 73% | Emax ([2]; 100 g ai/hl, 10DAA3, Trial 1, read-out: % Efficacy on Nymphs): 78% | Emax ([2]; 100 g ai/hl, 10DAA3, Trial 2, read-out: % Efficacy on Nymphs): 78% | Emax ([2]; 100 g ai/hl, 15DAA3, Trial 1, read-out: % Efficacy on Nymphs): 68% | Emax ([2]; 100 g ai/hl, 15DAA3, Trial 2, read-out: % Efficacy on Nymphs): 68% | Emax ([2]; 100 g ai/hl, 20DAA3, Trial 1, read-out: % Efficacy on Nymphs): 56% | Emax ([2]; 100 g ai/hl, 20DAA3, Trial 2, read-out: % Efficacy on Nymphs): 56% | Emax ([2]; 100 g ai/hl, Avg, Trial 1, read-out: % Efficacy on Nymphs Avg % C): 72% | Emax at 100 g/ha ([3]; 25DAA1, Trial 2): 60% | Emax at 100 g/ha ([3]; 30DAA1, Trial 2): 34% | Emax at 100 g/ha ([3]; 35DAA1, Trial 2): 63% | Emax at 100 g/ha ([3]; 40DAA2, Trial 2): 52% | Emax at 150 g/ha ([3]; 25DAA1, Trial 2): 78% | Emax at 150 g/ha ([3]; 30DAA1, Trial 2): 79% | Emax at 150 g/ha ([3]; 35DAA1, Trial 2): 77% | Emax at 150 g/ha ([3]; 40DAA2, Trial 2): 61% | Emax at 100 g/ha ([3]; 240 h, 10DAA, Trial 1): 67% | Emax at 150 g/ha ([3]; 240 h, 10DAA, Trial 1): 69% | Emax at 100 g/ha ([3]; 360 h, 15DAA, Trial 1): 65% | Emax at 150 g/ha ([3]; 360 h, 15DAA, Trial 1): 84% | Emax at 100 g/ha ([3]; 480 h, 20DAA, Trial 1): 59% | Emax at 150 g/ha ([3]; 480 h, 20DAA, Trial 1): 84% | Emax at 100 g/ha ([3]; 600 h, 25DAA, Trial 1): 39% | Emax at 150 g/ha ([3]; 600 h, 25DAA, Trial 1): 77% | Emax at 100 g/ha ([3]; 720 h, 30DAA, Trial 1): 28% | Emax at 150 g/ha ([3]; 720 h, 30DAA, Trial 1): 74% | Emax at 100 g/ha ([3]; 840 h, 35DAA, Trial 1): 24% | Emax at 150 g/ha ([3]; 840 h, 35DAA, Trial 1): 70% | Emax at 100 g/ha ([3]; 960 h, 40DAA, Trial 1): 13% | Emax at 150 g/ha ([3]; 960 h, 40DAA, Trial 1): 64% | Emax ([4]; 75 g ai/hl, 5DAA1, Trial 1, read-out: % Efficacy on Adults): 82% | Emax ([4]; 75 g ai/hl, 5DAA1, Trial 2, read-out: % Efficacy on Adults): 82% | Emax ([4]; 75 g ai/hl, 5DAA2, Trial 1, read-out: % Efficacy on Adults): 69% | Emax ([4]; 75 g ai/hl, 5DAA2, Trial 2, read-out: % Efficacy on Adults): 69% | Emax ([4]; 75 g ai/hl, 5DAA3, Trial 1, read-out: % Efficacy on Adults): 83% | Emax ([4]; 75 g ai/hl, 5DAA3, Trial 2, read-out: % Efficacy on Adults): 83% | Emax ([4]; 75 g ai/hl, 10DAA1, Trial 1, read-out: % Efficacy on Adults): 49% | Emax ([4]; 75 g ai/hl, 10DAA1, Trial 2, read-out: % Efficacy on Adults): 49% | Emax ([4]; 75 g ai/hl, 10DAA2, Trial 1, read-out: % Efficacy on Adults): 67% | Emax ([4]; 75 g ai/hl, 10DAA2, Trial 2, read-out: % Efficacy on Adults): 67% | Emax ([4]; 75 g ai/hl, 10DAA3, Trial 1, read-out: % Efficacy on Adults): 79% | Emax ([4]; 75 g ai/hl, 10DAA3, Trial 2, read-out: % Efficacy on Adults): 79% | Emax ([4]; 75 g ai/hl, 15DAA3, Trial 1, read-out: % Efficacy on Adults): 71% | Emax ([4]; 75 g ai/hl, 15DAA3, Trial 2, read-out: % Efficacy on Adults): 71% | Emax ([4]; 75 g ai/hl, 20DAA3, Trial 1, read-out: % Efficacy on Adults): 62% | Emax ([4]; 75 g ai/hl, 20DAA3, Trial 2, read-out: % Efficacy on Adults): 62% | Emax ([4]; 75 g ai/hl, Avg, Trial 1, read-out: % Efficacy on Adults Avg % C): 70% | Emax ([4]; 100 g ai/hl, 5DAA1, Trial 1, read-out: % Efficacy on Adults): 89% | Emax ([4]; 100 g ai/hl, 5DAA1, Trial 2, read-out: % Efficacy on Adults): 89% | Emax ([4]; 100 g ai/hl, 5DAA2, Trial 1, read-out: % Efficacy on Adults): 89% | Emax ([4]; 100 g ai/hl, 5DAA2, Trial 2, read-out: % Efficacy on Adults): 89% | Emax ([4]; 100 g ai/hl, 5DAA3, Trial 1, read-out: % Efficacy on Adults): 90% | Emax ([4]; 100 g ai/hl, 5DAA3, Trial 2, read-out: % Efficacy on Adults): 90% | Emax ([4]; 100 g ai/hl, 10DAA1, Trial 1, read-out: % Efficacy on Adults): 74% | Emax ([4]; 100 g ai/hl, 10DAA1, Trial 2, read-out: % Efficacy on Adults): 74% | Emax ([4]; 100 g ai/hl, 10DAA2, Trial 1, read-out: % Efficacy on Adults): 86% | Emax ([4]; 100 g ai/hl, 10DAA2, Trial 2, read-out: % Efficacy on Adults): 86% | Emax ([4]; 100 g ai/hl, 10DAA3, Trial 1, read-out: % Efficacy on Adults): 86% | Emax ([4]; 100 g ai/hl, 10DAA3, Trial 2, read-out: % Efficacy on Adults): 86% | Emax ([4]; 100 g ai/hl, 15DAA3, Trial 1, read-out: % Efficacy on Adults): 80% | Emax ([4]; 100 g ai/hl, 15DAA3, Trial 2, read-out: % Efficacy on Adults): 80% | Emax ([4]; 100 g ai/hl, 20DAA3, Trial 1, read-out: % Efficacy on Adults): 68% | Emax ([4]; 100 g ai/hl, 20DAA3, Trial 2, read-out: % Efficacy on Adults): 68% | Emax ([4]; 100 g ai/hl, Avg, Trial 1, read-out: % Efficacy on Adults Avg % C): 83%
